For 20 compounds, IC50 results are on record in ChEMBL document CHEMBL3992501, “Synthesis and biological evaluation of salinomycin triazole analogues as anticancer agents” (Eur J Med Chem, 2017).

Structures are written as SMILES.

The test system of one assay is MCF7. In words: Antiproliferative activity against human MCF7 cells after 48 hrs by MTT assay. The assay is classed as functional, cell-based. The following applies: MCF7, 48 h. (Formazan colour is commonly taken as a measure of viable cells.)
The next assay deals with MDA-MB-231. Kind of assay: Antiproliferative activity against human MDA-MB-231 cells after 48 hrs by MTT assay. The class given is functional, cell-based. The note with it: MDA-MB-231, 48 h.

As usually defined, the IC50 is the concentration that inhibits the measured activity by half. For the compound `CC[C@@H](C(=O)[C@@H](C)[C@@H](O)[C@H](C)[C@@H]1O[C@@H]([C@@H](CC)C(=O)O)CC[C@@H]1C)[C@H]1O[C@]2(C=C[C@@H](OC(=O)Cn3cc(CCO)nn3)[C@]3(CC[C@@](C)([C@H]4CC[C@](O)(CC)[C@H](C)O4)O3)O2)[C@H](C)C[C@@H]1C`, the IC50 amounted to 2120 nM with MCF7 and 4.72 µM in the assay with MDA-MB-231.
Take `CC[C@@H](C(=O)[C@@H](C)[C@@H](O)[C@H](C)[C@@H]1O[C@@H]([C@@H](CC)C(=O)O)CC[C@@H]1C)[C@H]1O[C@]2(C=C[C@@H](OC(=O)Cn3cc(-c4cccc(N)c4)nn3)[C@]3(CC[C@@](C)([C@H]4CC[C@](O)(CC)[C@H](C)O4)O3)O2)[C@H](C)C[C@@H]1C`: the IC50 with MCF7 is 1650 nM; in the assay on MDA-MB-231, 3.33 µM.
On the same counts, the results for `CC[C@@H](C(=O)[C@@H](C)[C@@H](O)[C@H](C)[C@@H]1O[C@@H]([C@@H](CC)C(=O)OCc2cn(CCCCCC(=O)O)nn2)CC[C@@H]1C)[C@H]1O[C@]2(C=C[C@@H](O)[C@]3(CC[C@@](C)([C@H]4CC[C@](O)(CC)[C@H](C)O4)O3)O2)[C@H](C)C[C@@H]1C` are 36300 nM and 44.1 µM.
In the case of `CC[C@@H](C(=O)[C@@H](C)[C@@H](O)[C@H](C)[C@@H]1O[C@@H]([C@@H](CC)C(=O)OCc2cn(CCCCCCC(=O)O)nn2)CC[C@@H]1C)[C@H]1O[C@]2(C=C[C@@H](O)[C@]3(CC[C@@](C)([C@H]4CC[C@](O)(CC)[C@H](C)O4)O3)O2)[C@H](C)C[C@@H]1C`, the IC50 with MCF7 was found to be 16300 nM; with MDA-MB-231 it was 19.6 µM.
Consider `CC[C@@H](C(=O)[C@@H](C)[C@@H](O)[C@H](C)[C@@H]1O[C@@H]([C@@H](CC)C(=O)OCc2cn(CC(=O)O)nn2)CC[C@@H]1C)[C@H]1O[C@]2(C=C[C@@H](O)[C@]3(CC[C@@](C)([C@H]4CC[C@](O)(CC)[C@H](C)O4)O3)O2)[C@H](C)C[C@@H]1C`, for which the IC50 in the assay with MCF7 is 13700 nM; with MDA-MB-231, over 100 µM.
On the same counts, the results for `CC[C@@H](C(=O)[C@@H](C)[C@@H](O)[C@H](C)[C@@H]1O[C@@H]([C@@H](CC)C(=O)OCc2cn(CCCCCCCCCCC(=O)O)nn2)CC[C@@H]1C)[C@H]1O[C@]2(C=C[C@@H](O)[C@]3(CC[C@@](C)([C@H]4CC[C@](O)(CC)[C@H](C)O4)O3)O2)[C@H](C)C[C@@H]1C` are 3640 nM and 4.31 µM.
In the same order, the values of `CC[C@@H](C(=O)[C@@H](C)[C@@H](O)[C@H](C)[C@@H]1O[C@@H]([C@@H](CC)C(=O)O)CC[C@@H]1C)[C@H]1O[C@]2(C=C[C@@H](OC(=O)CCl)[C@]3(CC[C@@](C)([C@H]4CC[C@](O)(CC)[C@H](C)O4)O3)O2)[C@H](C)C[C@@H]1C` are 1880 nM and 5.83 µM.
With `CC[C@@H](C(=O)[C@@H](C)[C@@H](O)[C@H](C)[C@@H]1O[C@@H]([C@@H](CC)C(=O)O)CC[C@@H]1C)[C@H]1O[C@]2(C=C[C@@H](OC(=O)Cn3cc(COCCOC(=O)c4cn(CC(=O)O[C@@H]5C=C[C@]6(O[C@H]([C@@H](CC)C(=O)[C@@H](C)[C@@H](O)[C@H](C)[C@@H]7O[C@@H]([C@@H](CC)C(=O)O)CC[C@@H]7C)[C@@H](C)C[C@H]6C)O[C@@]56CC[C@@](C)([C@H]5CC[C@](O)(CC)[C@H](C)O5)O6)nn4)nn3)[C@]3(CC[C@@](C)([C@H]4CC[C@](O)(CC)[C@H](C)O4)O3)O2)[C@H](C)C[C@@H]1C`, the IC50 in the assay with MCF7 amounted to 600 nM; in the assay on MDA-MB-231, 6.69 µM.
In the same order, the values of `CC[C@@H](C(=O)[C@@H](C)[C@@H](O)[C@H](C)[C@@H]1O[C@@H]([C@@H](CC)C(=O)O)CC[C@@H]1C)[C@H]1O[C@]2(C=C[C@@H](OC(=O)Cn3cc(CO)nn3)[C@]3(CC[C@@](C)([C@H]4CC[C@](O)(CC)[C@H](C)O4)O3)O2)[C@H](C)C[C@@H]1C` are 3340 nM and 2.72 µM.
For the compound `CC[C@@H](C(=O)[C@@H](C)[C@@H](O)[C@H](C)[C@@H]1O[C@@H]([C@@H](CC)C(=O)O)CC[C@@H]1C)[C@H]1O[C@]2(C=C[C@@H](OC(=O)Cn3cc(CCCC(=O)O)nn3)[C@]3(CC[C@@](C)([C@H]4CC[C@](O)(CC)[C@H](C)O4)O3)O2)[C@H](C)C[C@@H]1C`, the IC50 in the assay with MCF7 was 3660 nM; with MDA-MB-231, 1.94 µM.
On the same counts, the results for `CC[C@@H](C(=O)[C@@H](C)[C@@H](O)[C@H](C)[C@@H]1O[C@@H]([C@@H](CC)C(=O)O)CC[C@@H]1C)[C@H]1O[C@]2(C=C[C@@H](OC(=O)Cn3cc(CCOC(=O)c4cn(CC(=O)O[C@@H]5C=C[C@]6(O[C@H]([C@@H](CC)C(=O)[C@@H](C)[C@@H](O)[C@H](C)[C@@H]7O[C@@H]([C@@H](CC)C(=O)O)CC[C@@H]7C)[C@@H](C)C[C@H]6C)O[C@@]56CC[C@@](C)([C@H]5CC[C@](O)(CC)[C@H](C)O5)O6)nn4)nn3)[C@]3(CC[C@@](C)([C@H]4CC[C@](O)(CC)[C@H](C)O4)O3)O2)[C@H](C)C[C@@H]1C` are 710 nM and 9.01 µM.
In the same order, the values of `CC[C@@H](C(=O)[C@@H](C)[C@@H](O)[C@H](C)[C@@H]1O[C@@H]([C@@H](CC)C(=O)OCc2cn(CCCC(=O)O)nn2)CC[C@@H]1C)[C@H]1O[C@]2(C=C[C@@H](O)[C@]3(CC[C@@](C)([C@H]4CC[C@](O)(CC)[C@H](C)O4)O3)O2)[C@H](C)C[C@@H]1C` are 41200 nM and 52.1 µM.
Take `CC[C@@H](C(=O)[C@@H](C)[C@@H](O)[C@H](C)[C@@H]1O[C@@H]([C@@H](CC)C(=O)O)CC[C@@H]1C)[C@H]1O[C@]2(C=C[C@@H](OC(=O)Cn3cc(C(=O)O)nn3)[C@]3(CC[C@@](C)([C@H]4CC[C@](O)(CC)[C@H](C)O4)O3)O2)[C@H](C)C[C@@H]1C`: the IC50 came out at 1860 nM in the assay on MCF7 and 6.48 µM with MDA-MB-231.
For `CC[C@@H](C(=O)[C@@H](C)[C@@H](O)[C@H](C)[C@@H]1O[C@@H]([C@@H](CC)C(=O)OCc2cn(CCC(=O)O)nn2)CC[C@@H]1C)[C@H]1O[C@]2(C=C[C@@H](O)[C@]3(CC[C@@](C)([C@H]4CC[C@](O)(CC)[C@H](C)O4)O3)O2)[C@H](C)C[C@@H]1C`, the results for the IC50 in the assay on MCF7 and in the assay on MDA-MB-231 were 37300 nM and 87.4 µM, respectively.
On the same counts, the results for `CC[C@@H](C(=O)[C@@H](C)[C@@H](O)[C@H](C)[C@@H]1O[C@@H]([C@@H](CC)C(=O)O)CC[C@@H]1C)[C@H]1O[C@]2(C=C[C@@H](OC(=O)Cn3cc(COCCO)nn3)[C@]3(CC[C@@](C)([C@H]4CC[C@](O)(CC)[C@H](C)O4)O3)O2)[C@H](C)C[C@@H]1C` are 1230 nM and 4.09 µM.
`CC[C@@H](C(=O)[C@@H](C)[C@@H](O)[C@H](C)[C@@H]1O[C@@H]([C@@H](CC)C(=O)O)CC[C@@H]1C)[C@H]1O[C@]2(C=C[C@@H](OC(=O)Cn3cc(COCCOCc4cn(CC(=O)O[C@@H]5C=C[C@]6(O[C@H]([C@@H](CC)C(=O)[C@@H](C)[C@@H](O)[C@H](C)[C@@H]7O[C@@H]([C@@H](CC)C(=O)O)CC[C@@H]7C)[C@@H](C)C[C@H]6C)O[C@@]56CC[C@@](C)([C@H]5CC[C@](O)(CC)[C@H](C)O5)O6)nn4)nn3)[C@]3(CC[C@@](C)([C@H]4CC[C@](O)(CC)[C@H](C)O4)O3)O2)[C@H](C)C[C@@H]1C`: the results for the IC50 in the assay with MCF7 and in the assay with MDA-MB-231 were 910 nM and 4.06 µM, respectively.
In the same order, the values of `CC[C@@H](C(=O)[C@@H](C)[C@@H](O)[C@H](C)[C@@H]1O[C@@H]([C@@H](CC)C(=O)OCc2cn(CCCCC(=O)O)nn2)CC[C@@H]1C)[C@H]1O[C@]2(C=C[C@@H](O)[C@]3(CC[C@@](C)([C@H]4CC[C@](O)(CC)[C@H](C)O4)O3)O2)[C@H](C)C[C@@H]1C` are 19900 nM and 26.2 µM.
In the same order, the values of `CC[C@@H](C(=O)[C@@H](C)[C@@H](O)[C@H](C)[C@@H]1O[C@@H]([C@@H](CC)C(=O)O)CC[C@@H]1C)[C@H]1O[C@]2(C=C[C@@H](OC(=O)Cn3cc(COCc4cn(CC(=O)O[C@@H]5C=C[C@]6(O[C@H]([C@@H](CC)C(=O)[C@@H](C)[C@@H](O)[C@H](C)[C@@H]7O[C@@H]([C@@H](CC)C(=O)O)CC[C@@H]7C)[C@@H](C)C[C@H]6C)O[C@@]56CC[C@@](C)([C@H]5CC[C@](O)(CC)[C@H](C)O5)O6)nn4)nn3)[C@]3(CC[C@@](C)([C@H]4CC[C@](O)(CC)[C@H](C)O4)O3)O2)[C@H](C)C[C@@H]1C` are 740 nM and 4.66 µM.
Consider `CC[C@@H](C(=O)[C@@H](C)[C@@H](O)[C@H](C)[C@@H]1O[C@@H]([C@@H](CC)C(=O)O)CC[C@@H]1C)[C@H]1O[C@]2(C=C[C@@H](O)[C@]3(CC[C@@](C)([C@H]4CC[C@](O)(CC)[C@H](C)O4)O3)O2)[C@H](C)C[C@@H]1C` [SALINOMYCIN], for which the IC50 turned out to be 2980 nM in the assay with MCF7 and 6.42 µM in the assay with MDA-MB-231.
On the same counts, the results for `CC[C@@H](C(=O)[C@@H](C)[C@@H](O)[C@H](C)[C@@H]1O[C@@H]([C@@H](CC)C(=O)O)CC[C@@H]1C)[C@H]1O[C@]2(C=C[C@@H](OC(=O)Cn3cc(CCC(=O)O)nn3)[C@]3(CC[C@@](C)([C@H]4CC[C@](O)(CC)[C@H](C)O4)O3)O2)[C@H](C)C[C@@H]1C` are 2030 nM and 3.13 µM.
